Experimental data as given in US11857596B2, “Animal feed additive and animal feed” (priority 2018, dated 2024).
Converted amounts (≈) assume the structure as drawn. Read-outs that look alike come from different tables or passages of the source.

Legend:
[1] = Metabolome analysis of intestinal tract contents and blood; format: in vivo, chickens; conditions: in vivo
Text: It is thus considered that coated-Phe and coated-Tyr are assimilated by intestinal bacteria in feces and rapidly metabolized in blood.

[2] = Chicken growth test (body weight gain and feed conversion ratio); format: in vivo, broiler chickens
[3] = system: Caco-2 cells (human intestinal epithelial cells); experiment: Membrane strengthening experiment (TER recovery of barrier function after TNF-α); format: cell-based
[4] = system: Bifidobacterium thermophilum AJ110569; experiment: Minimum inhibitory concentration, spot-on-lawn method; format: cell-based
[5] = system: Salmonella enterica AJ2785; experiment: microbe, parasite or virus in culture; format: cell-based; conditions: for MIC: Salmonella enterica, AJ2785, read-out: Minimum inhibitory concentration
Escherichia coli MG1665 = experiment: Minimum inhibitory concentration, spot-on-lawn method; format: cell-based
[6] = system: Bacteroides fragilis JCM11019; experiment: as above; format: cell-based
[7] = system: Clostridium perfringens AJ3350; experiment: microbe, parasite or virus in culture; format: cell-based; conditions: for MIC: Clostridium perfringens, AJ3350, read-out: Minimum inhibitory concentration
[8] = system: Enterococcus faecalis AJ110149; experiment: Minimum inhibitory concentration, spot-on-lawn method; format: cell-based
[9] = system: Lactobacillus salivarius AJ110152; experiment: as above; format: cell-based; conditions: for MIC: Ligilactobacillus salivarius
[10] = system: Lactobacillus acidophilus AJ13778; experiment: as above; format: cell-based
[11] = Table 4, 0-3 weeks, addition 200 ppm (core material) in feed
[12] = Homo sapiens, Caco-2, 24 h, read-out: Recovery ratio (%)
[13] = material conc. 1 uM, comparison value with Ctr (TNFα alone), 24 h
[14] = material conc. 10 uM, comparison value with Ctr (TNFα alone), 24 h, 1.1 or more = membrane-strengthening ability

For `N[C@@H](Cc1ccccc1)C(=O)O` [Phe, phenylalanine], the “detection in the intestinal tract contents or blood” value [1] was “not detected”, the BWG [2, 11] was 106% and the FCR [2, 11] was 98%. For the same molecule, the “body weight gain effect and feed conversion ratio improvement effect” value ([2]; result in words, healthy broilers, 0 to 21 days of age) was “A certain degree of body weight gain effect was confirmed”.

For `O=C(O)C(O)Cc1ccccc1` (stereo not shown) [Phenyl-lactate, phenyl lactatic acid], the “Recovery ratio (%)” value ([3]; material conc. 0.2 mM, TER barrier function recovery, 24 h) was 129% and the Recovery ratio/ctr ([3]; material conc. 0.2 mM, comparison value with Ctr (TNFα alone), 24 h) was 1.12.

In the case of `CC[C@@H](C(=O)[C@@H](C)[C@@H](O)[C@H](C)[C@@H]1O[C@@H]([C@@H](CC)C(=O)O)CC[C@@H]1C)[C@H]1O[C@]2(C=C[C@@H](O)[C@]3(CC[C@@](C)([C@H]4CC[C@](O)(CC)[C@H](C)O4)O3)O2)[C@H](C)C[C@@H]1C` [Salinomycin], the MIC ([4]; Bifidobacterium thermophilum, AJ110569, read-out: Minimum inhibitory concentration) is reported as 2000 µg/mL (≈ 2660 µM), the MIC [5] is reported as > 100000 µg/mL and the MIC (Escherichia coli MG1665; Escherichia coli, MG1665, read-out: Minimum inhibitory concentration) is reported as > 100000 µg/mL. For the same molecule, the MIC ([6]; Bacteroides fragilis, JCM11019, read-out: Minimum inhibitory concentration) was 64000 µg/mL (≈ 85200 µM), the MIC [7] was 1000 µg/mL (≈ 1330 µM) and the MIC ([8]; Enterococcus faecalis, AJ110149, read-out: Minimum inhibitory concentration) was 500 µg/mL (≈ 666 µM). It also gave an activity at 1 µM [3, 12] of 124%, a Recovery ratio/ctr [3, 13] of 1.10 and an MIC ([9]; AJ110152, read-out: Minimum inhibitory concentration) of 1000 µg/mL (≈ 1330 µM). For the same molecule, the MIC ([10]; Lactobacillus acidophilus, AJ13778, read-out: Minimum inhibitory concentration) was 2000 µg/mL (≈ 2660 µM).

In the case of `N[C@@H](Cc1c[nH]c2ccccc12)C(=O)O` [Tryptophan, tryptophan], the activity at 4000 µM [3, 12] is reported as 128% and the Recovery ratio/ctr ([3]; material conc. 4 mM, comparison value with Ctr (TNFα alone), 24 h) is reported as 1.11.

In the case of `CC[C@H]1OC(=O)C[C@@H](O)[C@H](C)[C@@H](O[C@@H]2O[C@H](C)[C@@H](O[C@H]3C[C@@](C)(O)[C@@H](O)[C@H](C)O3)[C@H](N(C)C)[C@H]2O)[C@@H](CC=O)C[C@@H](C)C(=O)/C=C/C(C)=C/[C@@H]1CO[C@@H]1O[C@H](C)[C@@H](O)[C@@H](OC)[C@H]1OC` [Tylosin], the MIC ([4]; indicator strain Bifidobacterium thermophilum AJ110569, GAM, 37° C., read-out: Minimum inhibitory concentration) is reported as 10 µg/mL (≈ 10.9 µM), the MIC [5] is reported as > 100000 µg/mL and the MIC (Escherichia coli MG1665; indicator strain Escherichia coli MG1665, LB, 37° C., read-out: Minimum inhibitory concentration) is reported as > 100000 µg/mL. It also gave an MIC ([6]; indicator strain Bacteroides fragilis JCM11019, GAM, 37° C., read-out: Minimum inhibitory concentration) of 4000 µg/mL (≈ 4370 µM), an MIC [7] of 4000 µg/mL (≈ 4370 µM) and an MIC ([8]; indicator strain Enterococcus faecalis AJ110149, MRS, 30° C., ND = no effect detected, read-out: Minimum inhibitory concentration) of 4000 µg/mL (≈ 4370 µM). It also gave an activity at 10 µM ([3]; Homo sapiens, Caco-2, material conc. 10 uM, TER barrier function recovery, 24 h, read-out: Recovery ratio (%)) of 135%, a Recovery ratio/ctr [3, 14] of 1.17 and an MIC ([9]; indicator strain Lactobacillus salivarius AJ110152, MRS, 37° C., read-out: Minimum inhibitory concentration) of 1000 µg/mL (≈ 1090 µM). For the same molecule, the MIC ([10]; indicator strain Lactobacillus acidophilus AJ13778, MRS, 37° C., read-out: Minimum inhibitory concentration) was 1000 µg/mL (≈ 1090 µM).

`CC(C)[C@H](N)C(=O)O` [Valine, valine] gave a Recovery ratio/ctr ([3]; 24 h, 200 µM) of 1.13 and an activity at 200 µM ([3]; Homo sapiens, Caco-2, material conc. 0.2 mM, TER barrier function recovery, 24 h, read-out: Recovery ratio (%)) of 130%.

In the case of Colistin, the Minimum inhibitory concentration ([4]; indicator strain Bifidobacterium thermophilum AJ110569, GAM, 37° C.) is reported as 128000 µg/mL, the Minimum inhibitory concentration [5] is reported as >100000 µg/mL and the Minimum inhibitory concentration (Escherichia coli MG1665; indicator strain Escherichia coli MG1665, LB, 37° C.) is reported as 4000 µg/mL. For the same molecule, the Minimum inhibitory concentration ([6]; indicator strain Bacteroides fragilis JCM11019, GAM, 37° C.) was >100000 µg/mL, the Minimum inhibitory concentration ([7]; indicator strain Clostridium perfringens AJ3350, GAM, 37° C.) was >100000 µg/mL and the Minimum inhibitory concentration ([8]; indicator strain Enterococcus faecalis AJ110149, MRS, 30° C., ND = no effect detected) was >100000 µg/mL. The “Recovery ratio (%)” value ([3]; material conc. 1 uM, TER barrier function recovery, 24 h) was 130%, the Recovery ratio/ctr [3, 13] was 1.13 and the “function of strengthening the barrier function (membrane-strengthening ability)” value ([3]; result in words, FIG. 1A-1H) was “had a function of strengthening the barrier function even at a low concentration”. For the same molecule, the Minimum inhibitory concentration ([9]; indicator strain Lactobacillus salivarius AJ110152, MRS, 37° C.) was >100000 µg/mL and the Minimum inhibitory concentration ([10]; indicator strain Lactobacillus acidophilus AJ13778, MRS, 37° C.) was >100000 µg/mL.

With Zinc Bacitracin the “Recovery ratio (%)” value ([3]; material conc. 10 uM, TER barrier function recovery, 24 h) was 124% and the Recovery ratio/ctr [3, 14] was 1.10.
